The text below walks through data of ChEMBL document CHEMBL1201862, “PubChem BioAssay data set” (2004).

Some test systems named below: HOP-62; SNB-75; HL-60; NCI-H460; MDA-MB-435; KM12; SW-620; UACC-62; RPMI-8226; SN12C; HCT-15; SK-MEL-28; NCI-H522; CAKI-1; MDA-MB-231; DU-145; TK-10; SF-539; MCF7; COLO 205.
Holding throughout (test): NCI anticancer screen, dose series, 48 h

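Where inhibition never reached the appropriate level, the endpoint shown equals the highest concentration tested. Otherwise, values were interpolated linearly from a five-concentration, 48-hour dose response in 96-well plates. GI50: concentration for 50% inhibition of growth.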 Calls of active or inactive are those of the source. No stated cut-off is given here; in the data, active = GI50 up to about 1.1 µM and inactive = higher.

In the case of `CC(ON(C(c1ccccc1)C(C)C)C(C)(C)C)c1ccccc1` (stereo not given), the GI50 in the test with HOP-62 is 19.4 µM (inactive); in the test with SNB-75, 25.1 µM (inactive); in the test on HL-60 it was 18.7 µM (inactive); in the test with NCI-H460, 18.1 µM (inactive); in the test on MDA-MB-435, 25.5 µM (inactive); in the test with KM12, 18.4 µM (inactive). Also, the GI50 was 16.2 µM (inactive) with SW-620; 15.9 µM (inactive) in the test on UACC-62; 29.5 µM (inactive) with RPMI-8226; 16.8 µM (inactive) in the test on SN12C; 61.8 µM with HCT-15; 20.4 µM (inactive) in the test on SK-MEL-28. Further, the GI50 with NCI-H522 was 26.5 µM (inactive); with CAKI-1, 21.7 µM (inactive); in the test on MDA-MB-231 it was 21.1 µM (inactive); in the test on DU-145, 18.5 µM (inactive); in the test with TK-10 it was 22.4 µM (inactive); with SF-539, 21.6 µM (inactive). Moreover, the GI50 in the test with MCF7 is 16.4 µM (inactive); in the test with COLO 205 it was 17.3 µM (inactive).
Regarding `CC1(C)CCC(C)(C)c2cc(NC(=O)c3ccc(C(=O)O)cc3)ccc21` [TAMIBAROTENE], the GI50 in the test on HOP-62 is 23.6 µM (inactive); in the test on SNB-75, > 100 µM (inactive); in the test with HL-60 it was 44.5 µM (inactive); in the test on NCI-H460, 21.3 µM (inactive); with MDA-MB-435 it was 25.9 µM (inactive); in the test on KM12, 20.7 µM (inactive). For the same molecule, the GI50 in the test on SW-620 is > 60.4 µM (inactive); with UACC-62 it was 16.5 µM (inactive); in the test on RPMI-8226 it was 20.4 µM (inactive); with SN12C it was 25.5 µM (inactive); with HCT-15, 26.9 µM; in the test with SK-MEL-28 it was > 48.3 µM (inactive). Also, the GI50 is 36.6 µM (inactive) with NCI-H522; 47.6 µM (inactive) in the test with CAKI-1; > 49.1 µM (inactive) in the test on MDA-MB-231; 23.8 µM (inactive) in the test with DU-145; 25.1 µM (inactive) in the test with TK-10; 17.7 µM (inactive) in the test on SF-539. The results for the GI50 in the test with MCF7 and in the test on COLO 205 were 28.9 µM (inactive) and 23.9 µM (inactive), respectively.
As for `CCNCCC1(CC)C(=O)NC(=O)NC1=O`, the GI50 in the test on HOP-62 is > 100 µM (inactive); in the test on SNB-75, > 100 µM (inactive); with HL-60, 0.0288 µM (active); in the test on NCI-H460, > 100 µM (inactive); in the test on MDA-MB-435, > 100 µM (inactive); in the test with KM12, > 100 µM (inactive). Also, the GI50 in the test on SW-620 was > 100 µM (inactive); with UACC-62 it was > 100 µM (inactive); with RPMI-8226, > 100 µM (inactive); in the test with SN12C, > 100 µM (inactive); with HCT-15, greater than 100 µM; in the test with SK-MEL-28, > 100 µM (inactive). Further, the GI50 in the test on NCI-H522, in the test with CAKI-1, in the test on MDA-MB-231, in the test on DU-145, in the test on TK-10 and with SF-539 was > 100 µM (inactive) in each case. The GI50 in the test on MCF7 and with COLO 205 was > 100 µM (inactive) throughout.
Turning to `COc1ccc2c(c1)[nH]c1c(/C=C/c3ccccc3)nccc12`, the GI50 is 15.7 µM (inactive) with HOP-62; 12.3 µM (inactive) with SNB-75; 19.1 µM (inactive) in the test with HL-60; 13.2 µM (inactive) in the test with NCI-H460; 16.2 µM (inactive) in the test on MDA-MB-435; 14.1 µM (inactive) in the test with KM12. Further, the GI50 in the test with SW-620 was 15.9 µM (inactive); in the test with UACC-62, 14.5 µM (inactive); with RPMI-8226, 13.3 µM (inactive); in the test on SN12C, 14.2 µM (inactive); with HCT-15, 11.5 µM; with SK-MEL-28, 14.9 µM (inactive). The GI50 in the test with NCI-H522 was 12.4 µM (inactive); in the test with CAKI-1, 14.5 µM (inactive); in the test with MDA-MB-231 it was 17.5 µM (inactive); in the test with DU-145 it was 20.5 µM (inactive); in the test with TK-10, 19.4 µM (inactive); in the test with SF-539 it was 13 µM (inactive). The values for the GI50 in the test on MCF7 and with COLO 205 were 16 µM (inactive) and 3.83 µM (inactive), respectively.
